Values of other authors in US20040092577A1, “Microparticle pharmaceutical compositions for intratumoral delivery” (priority 2002, published 2004).

Columns and labels:
[1] = system: MDA-468 breast cancer cells; settings: Lankmela et al.
[2] = gels, 0.6% loading; Zentner 2001

| Compound | rate of uptake α [1] [s⁻¹] | duration of delivery [2] [weeks] |
| --- | --- | --- |
| COc1cccc2c1C(=O)c1c(O)c3c(c(O)c1C2=O)C[C@@](O)(C(=O)CO)C[C@@H]3O[C@H]1C[C@H](N)[C@H](O)[C@H](C)O1 [doxorubicin] | 0.016 | – |
| CC(=O)O[C@H]1C(=O)[C@@]2(C)[C@H]([C@H](OC(=O)c3ccccc3)[C@]3(O)C[C@H](OC(=O)[C@H](O)[C@@H](NC(=O)c4ccccc4)c4ccccc4)C(C)=C1C3(C)C)[C@]1(OC(C)=O)CO[C@@H]1C[C@@H]2O [Paclitaxel] | – | 1 to 6 |
